Target: canine TRPM8 (Canis lupus familiaris, UniProt Q1A7N1)
Experiment: In Vitro Canine TRPM8 Functional Assay (Ca2+ fluorescence, icilin activation)
Type: cell-based
Settings: for IC50: HEK293 cells stably expressing canine TRPM8, icilin activation, eight-point dose-response, read-out: IC50; for inhibition at 0.2 µM / % Inh @ 0.2 (μM): compound at 0.2 μM, canine TRPM8, icilin activation; for inhibition at 0.2 µM: read-out: % Inh @ 0.2
Method in brief: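 Readout is the intracellular Ca2+ fluorescence change, measured by FLIPR or FDSS, in HEK293 cells stably expressing canine TRPM8. Potency (EC50 or IC50) is fitted from eight concentrations averaged over quadruplicate wells.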

canine TRPM8, sequence (Q1A7N1 1-1104): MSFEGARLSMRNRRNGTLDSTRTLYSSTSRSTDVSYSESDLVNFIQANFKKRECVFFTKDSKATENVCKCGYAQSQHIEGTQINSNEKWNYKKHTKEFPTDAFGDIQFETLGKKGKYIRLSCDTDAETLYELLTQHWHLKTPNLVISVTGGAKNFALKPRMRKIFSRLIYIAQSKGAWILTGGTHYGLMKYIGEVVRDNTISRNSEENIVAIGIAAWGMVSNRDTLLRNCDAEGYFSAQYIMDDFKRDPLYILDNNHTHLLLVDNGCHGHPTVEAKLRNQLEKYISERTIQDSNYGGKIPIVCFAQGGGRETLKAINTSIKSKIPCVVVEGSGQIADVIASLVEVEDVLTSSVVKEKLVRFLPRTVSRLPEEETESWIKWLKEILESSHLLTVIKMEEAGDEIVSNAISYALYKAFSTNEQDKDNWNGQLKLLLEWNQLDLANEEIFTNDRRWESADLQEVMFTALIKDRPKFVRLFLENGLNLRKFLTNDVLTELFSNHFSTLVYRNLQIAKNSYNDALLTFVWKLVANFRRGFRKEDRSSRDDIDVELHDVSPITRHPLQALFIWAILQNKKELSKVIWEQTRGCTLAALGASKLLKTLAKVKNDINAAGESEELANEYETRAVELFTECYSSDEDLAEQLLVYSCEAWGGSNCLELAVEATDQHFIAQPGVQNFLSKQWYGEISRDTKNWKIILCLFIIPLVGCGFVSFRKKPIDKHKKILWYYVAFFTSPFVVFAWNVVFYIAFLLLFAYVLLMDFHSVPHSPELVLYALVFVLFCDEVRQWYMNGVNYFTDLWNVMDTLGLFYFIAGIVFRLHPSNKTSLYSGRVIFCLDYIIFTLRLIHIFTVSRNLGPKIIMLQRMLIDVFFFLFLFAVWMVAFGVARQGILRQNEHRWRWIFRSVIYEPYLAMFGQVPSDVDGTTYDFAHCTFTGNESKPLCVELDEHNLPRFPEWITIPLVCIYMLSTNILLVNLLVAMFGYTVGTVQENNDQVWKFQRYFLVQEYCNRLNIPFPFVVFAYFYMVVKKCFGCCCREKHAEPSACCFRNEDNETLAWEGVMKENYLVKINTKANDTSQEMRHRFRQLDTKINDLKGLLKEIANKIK

Compound	IC50	inhibition at 0.2 µM	% Inh @ 0.2 (μM)
CC(C)(O)C1=C(N(Cc2ccc(F)c(C(F)(F)F)c2)S(=O)(=O)c2ccccc2)S(=O)(=O)c2ccccc21 [Compound 463, N-(4-Fluoro-3-trifluoromethyl-benzyl)-N-[3-(1-hydroxy-1-methyl-ethyl)-1,1-dioxo-benzo[b]thiophen-2-yl]-benzenesulfonamide]	26 nM	101%	
CC(O)C1=C(N(Cc2ccc(F)c(F)c2)S(=O)(=O)c2ccccc2)S(=O)(=O)c2ccccc21 (stereo not shown) [Compound 464, N-(3,4-Difluoro-benzyl)-N-[3-(1-hydroxy-ethyl)-1,1-dioxo-benzo[b]thiophen-2-yl]-benzenesulfonamide]	7 nM	102%	
CCCCN(c1sc2ccccc2c1C(=O)NC)S(=O)(=O)c1ccc(C(=O)OC)cc1 [Compound 466, N-(Butyl)-N-(3-methyl-carbamoyl-benzo[b]thiophen-2-yl)-4-carbomethoxy-benzenesulfonamide]			66%
CCCCN(c1sc2ccccc2c1C(=O)N(C)C)S(=O)(=O)c1ccc(C(=O)OC)cc1 [Compound 467, N-(Butyl)-N-(3-dimethyl-carbamoyl-benzo[b]thiophen-2-yl)-4-carbomethoxy-benzenesulfonamide]	20 nM		100%
CCCCN(c1cc2ccccc2s1)S(=O)(=O)c1ccc(C2=NOS(=O)N2)cc1 (stereo not shown) [Compound 470, N-(Benzo[b]thiophen-2-yl)-N-(butyl)-4-(3H-[1,2,3,5]oxathiadiazole-2-oxide)-benzenesulfonamide]			15%
O=S(=O)(c1ccc(-c2nnn[nH]2)cc1)N(CC1CC1)c1sc2ccccc2c1Br [Compound 474, N-(3-Bromo-benzo[b]thiophen-2-yl)-N-(cyclopropyl-methyl)-4-(1H-tetrazol-5-yl)-benzenesulfonamide]	8 nM	101%	
O=S(=O)(c1ccc(-c2nnn[nH]2)cc1)N(Cc1ccc(F)c(C(F)(F)F)c1)c1sc2ccccc2c1Br [Compound 475, N-(3-Bromo-benzo[b]thiophen-2-yl)-N-(4-fluoro-3-trifluoromethyl-benzyl)-4-(1H-tetrazol-5-yl)-benzenesulfonamide]	2 nM	102%	
O=S(=O)(c1ccc(Br)cc1)N(CCC(F)(F)F)c1cc2ccccc2s1 [Compound 476, N-(Benzo[b]thiophen-2-yl)-4-(bromo)-N-(3,3,3-trifluoro-propyl)-benzenesulfonamide]		39%	
CCCCN(c1sc2ccccc2c1Br)S(=O)(=O)c1ccc(-c2noc(=S)[nH]2)cc1 [Compound 481, N-(3-Bromo-benzo[b]thiophen-2-yl)-N-(butyl)-4-(5-thioxo-4,5-dihydro-[1,2,4]oxadiazol-3-yl)-benzenesulfonamide]		69%	
N/C(=N\O)c1ccc(S(=O)(=O)N(Cc2ccc(F)c(C(F)(F)F)c2)c2cc3ccccc3s2)cc1 [Compound 482, N-(Benzo[b]thiophen-2-yl)-N-(4-fluoro-3-trifluoromethyl-benzyl)-4-N-hydroxy-benzamidinesulfonamide]	24 nM		100%
O=c1[nH]c(-c2ccc(S(=O)(=O)N(Cc3ccc(F)c(C(F)(F)F)c3)c3cc4ccccc4s3)cc2)no1 [Compound 483, N-(Benzo[b]thiophen-2-yl)-N-(4-fluoro-3-trifluoromethyl-benzyl)-4-(5-oxo-4,5-dihydro-[1,2,4]oxadiazol-3-yl)-benzenesulfonamide]	9 nM	101%	
CCCCN(c1sc2ccccc2c1Br)S(=O)(=O)c1ccc(C2=NOS(=O)N2)cc1 (stereo not shown) [Compound 484, N-(3-Bromo-benzo[b]thiophen-2-yl)-N-(butyl)-4-(3H-[1,2,3,5]oxathiadiazole-2-oxide)-benzenesulfonamide]	21 nM		100%
CCCCN(c1sc2ccccc2c1Cl)S(=O)(=O)c1ccc(C2=NOS(=O)N2)cc1 (stereo not shown) [Compound 485, N-(3-Chloro-benzo[b]thiophen-2-yl)-N-(butyl)-4-(3H-[1,2,3,5]oxathiadiazole-2-oxide)-benzenesulfonamide]	21 nM		96%
Cc1c(N(Cc2cccc(C(F)(F)F)c2)S(=O)(=O)c2ccc(C(=O)O)cc2)sc2ccccc12 [Compound 491, N-(3-Methyl-benzo[b]thiophen-2-yl)-N-(3-trifluoromethyl-benzyl)-4-carboxy-benzenesulfonamide]	1 nM	101%	
Cc1c(N(Cc2ccc(S(C)(=O)=O)cc2)S(=O)(=O)c2ccc(C(=O)O)cc2)sc2ccccc12 [Compound 492, N-(3-Methyl-benzo[b]thiophen-2-yl)-N-(4-methylsulfone-benzyl)-4-carboxy-benzenesulfonamide]	62 nM		91%

More lines, main results first:

IC50	inhibition at 0.2 µM	Compound	% Inh @ 0.2 (μM)
63 nM	90%	CCCCN(c1sc2ccccc2c1C(N)=O)S(=O)(=O)c1ccc(C(=O)OC)cc1 [Compound 465, N-(Butyl)-N-(3-carbamoyl-benzo[b]thiophen-2-yl)-4-carbomethoxy-benzenesulfonamide]	
	16%	CCCCN(c1sc2ccccc2c1C(N)=O)S(=O)(=O)c1ccc(C(=O)O)cc1 [Compound 468, N-(Butyl)-N-(3-carbamoyl-benzo[b]thiophen-2-yl)-4-carboxy-benzenesulfonamide]	
	13%	CCCCN(c1sc2ccccc2c1C(=O)N(C)C)S(=O)(=O)c1ccc(C(=O)O)cc1 [Compound 469, N-(Butyl)-N-(3-dimethylcarbamoyl-benzo[b]thiophen-2-yl)-4-carboxy-benzenesulfonamide]	
59 nM		CCCCN(c1cc2ccccc2s1)S(=O)(=O)c1ccc(C(N)=NO)cc1 [Compound 471, N-(Benzo[b]thiophen-2-yl)-N-(butyl)-4-N-hydroxy-benzamidinesulfonamide]	97%
40 nM		CCCCN(c1cc2ccccc2s1)S(=O)(=O)c1ccc(C(N)=NC(=O)CO)cc1 [Compound 472, N-(Benzo[b]thiophen-2-yl)-N-(butyl)-4-N-hydroxyacetyl-benzamidine sulfonamide]	88%
9 nM		CCCCN(c1sc2ccccc2c1Br)S(=O)(=O)c1ccc(C(N)=NO)cc1 [Compound 473, N-(3-Bromo-benzo[b]thiophen-2-yl)-N-(butyl)-4-N-hydroxy-benzamidinesulfonamide]	102%
12 nM	100%	CCCCN(c1sc2ccccc2c1Cl)S(=O)(=O)c1ccc(C(=O)O)cc1 [Compound 477, N-(3-Chloro-benzo[b]thiophen-2-yl)-N-(butyl)-4-carboxy-benzenesulfonamide]	
25 nM	99%	O=C(O)c1ccc(S(=O)(=O)N(CC2CC2)c2sc3ccccc3c2Cl)cc1 [Compound 478, N-(3-Chloro-benzo[b]thiophen-2-yl)-N-(cyclopropylmethyl)-4-carboxy-benzenesulfonamide]	
13 nM	100%	O=C(O)c1ccc(S(=O)(=O)N(CCC(F)(F)F)c2sc3ccccc3c2Cl)cc1 [Compound 480, N-(3-Chloro-benzo[b]thiophen-2-yl)-N-(3,3,3-trifluoro-propyl)-4-carboxy-benzenesulfonamide]	
	100%	Cc1c(N(Cc2ccccc2)S(=O)(=O)c2ccc(C(=O)O)cc2)sc2ccccc12 [Compound 486, N-(3-Methyl-benzo[b]thiophen-2-yl)-N-(benzyl)-4-carboxy-benzenesulfonamide]	
